Reference: paper PMC13408680, “SLC26A11 is an atypical solute carrier with dual transport-channel function mediating lysosomal sulfate transport” (Nature Communications, 2026)
Numbering of substitutions follows the chain as printed.

Columns and labels:
[1] = target: T1, SLC26A11^ΔC (SLC26A11(ΔC)) (Homo sapiens, UniProt Q86WA9, E320Q); assay: differential scanning fluorimetry (nanoDSF), anion titration; format: binding
T1 construct: C-terminal disordered 23 residues deleted (MD model residues 26-583); expressed in Trichoplusia ni cells by baculovirus; N-glycosylated at Asn-294; homodimer; DDM micelles (DSF), SoyPC/BMP proteoliposomes (transport), MSP1-E3D1 nanodiscs (cryo-EM)
T1 sequence (Q86WA9 1-583 E320Q): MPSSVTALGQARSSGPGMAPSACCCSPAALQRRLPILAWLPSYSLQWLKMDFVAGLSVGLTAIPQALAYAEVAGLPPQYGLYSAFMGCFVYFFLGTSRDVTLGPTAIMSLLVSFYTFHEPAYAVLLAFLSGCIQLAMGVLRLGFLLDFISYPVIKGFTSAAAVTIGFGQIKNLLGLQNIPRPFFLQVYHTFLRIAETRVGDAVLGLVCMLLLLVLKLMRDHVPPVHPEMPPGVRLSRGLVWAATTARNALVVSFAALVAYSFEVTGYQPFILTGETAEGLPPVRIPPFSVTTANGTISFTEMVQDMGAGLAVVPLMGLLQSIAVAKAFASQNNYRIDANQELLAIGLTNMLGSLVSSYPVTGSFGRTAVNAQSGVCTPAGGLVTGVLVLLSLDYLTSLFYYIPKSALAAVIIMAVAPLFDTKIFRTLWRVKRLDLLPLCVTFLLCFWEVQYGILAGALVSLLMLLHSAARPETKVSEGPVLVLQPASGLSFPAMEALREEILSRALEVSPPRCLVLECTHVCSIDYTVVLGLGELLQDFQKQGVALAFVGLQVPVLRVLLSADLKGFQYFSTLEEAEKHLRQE

[2] = target: T2, SLC26A11^ΔC (SLC26A11(ΔC)) (Homo sapiens, UniProt Q86WA9); assay: as above; format: binding; conditions: read-out: apparent KD
T2 construct: C-terminal disordered 23 residues deleted (MD model residues 26-583); expressed in Trichoplusia ni cells by baculovirus; N-glycosylated at Asn-294; homodimer; DDM micelles (DSF), SoyPC/BMP proteoliposomes (transport), MSP1-E3D1 nanodiscs (cryo-EM)
T2 sequence (Q86WA9 1-583): T1 sequence (Q86WA9 1-583 E320Q) with Q320E

[3] = substrate: O=S(=O)(O)O; assay: purified protein; format: biochemical, Homo sapiens; conditions: pH out 5.0, pH in 7.5, 50 mM internal chloride, 30 °C, labelled compound

Molecule: Cl [chloride]
- Kd [1]: 8.8 ± 1.4 mM
- Kd [2]: 6 ± 1.4 mM

Molecule: O=S(=O)(O)O [sulfate]
- Kd [1]: 0.019 ± 0.004 mM
- Kd [2]: 0.057 ± 0.011 mM

B1: SLC26A11^ΔC (SLC26A11(ΔC)) (Homo sapiens) (protein)
chain: T1 sequence (Q86WA9 1-583 E320Q) with Q320E
notes: C-terminal disordered 23 residues deleted (MD model residues 26-583); expressed in Trichoplusia ni cells by baculovirus; N-glycosylated at Asn-294; homodimer; DDM micelles (DSF), SoyPC/BMP proteoliposomes (transport), MSP1-E3D1 nanodiscs (cryo-EM)
- Km [3]: 39.7 ± 5.5 µM
